“And” between values parts separate entries of the source, which are not always exact repeats. Equal entries are not always repeated.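 Grown in 96-well plates, cells were treated for 48 hours with each compound at five concentrations. Insufficient inhibition: endpoint recorded as highest concentration tested. Here, GI50 denotes the concentration required for 50% inhibition of growth. TGI denotes the concentration required for complete inhibition of growth.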
How the values were obtained:
Assay in all cases: NCI anticancer screen, dose series, 48 h
HL-60(TB) leukemia = tested on: HL-60(TB) leukemia
U251 CNS = tested on: U251 CNS
RXF 393 renal = tested on: RXF 393 renal
SK-OV-3 ovarian = tested on: SK-OV-3 ovarian
CCRF-CEM leukemia = tested on: CCRF-CEM leukemia
OVCAR-8 ovarian = tested on: OVCAR-8 ovarian
TK-10 renal = tested on: TK-10 renal
HCT-15 colon = tested on: HCT-15 colon
HCC-2998 colon = tested on: HCC-2998 colon
MDA-MB-435 = tested on: MDA-MB-435

SMILES	TGI (HL-60(TB) leukemia)	TGI (U251 CNS)	TGI (RXF 393 renal)	TGI (SK-OV-3 ovarian)	TGI (CCRF-CEM leukemia)	TGI (OVCAR-8 ovarian)	TGI (TK-10 renal)	TGI (HCT-15 colon)	TGI (HCC-2998 colon)	GI50 (MDA-MB-435)	TGI (MDA-MB-435)	GI50 (HL-60(TB) leukemia)	GI50 (U251 CNS)	GI50 (SK-OV-3 ovarian)	GI50 (CCRF-CEM leukemia)	GI50 (OVCAR-8 ovarian)	GI50 (HCT-15 colon)	GI50 (HCC-2998 colon)	GI50 (TK-10 renal)	GI50 (RXF 393 renal)
CCO/C=C\C12CCCC1NC(c1ccccc1)(c1ccccc1)O2 (configuration not stated)	45.2 µM	> 100 µM	81.3 µM	> 100 µM	51 µM	> 100 µM	> 100 µM	–	–	–	–	–	–	–	–	–	–	–	–	–
OC1OCC(COc2cc(Cl)c(Cl)cc2Cl)OC1O (configuration not stated)	90.9 µM	> 100 µM	–	> 100 µM	89.6 µM	> 100 µM	> 100 µM	44.6 µM	> 100 µM	–	–	–	–	–	–	–	–	–	–	–
NC(=O)NNC/C(Cl)=C(\Cl)C(=O)O	> 100 µM	> 100 µM	> 100 µM	> 100 µM	> 100 µM	> 100 µM	> 100 µM	> 100 µM	> 100 µM	–	–	–	–	–	–	–	–	–	–	–
CC1=CC2(C)/C=C(C)/C=C\CC(O)/C=C3/C=CC(=C4C(=O)OC2(CC1C)C4=O)OC3 (configuration not stated)	> 20.5 µM	3.58 µM	–	47.3 µM	7.95 µM	9.01 µM	3.46 µM	3.69 µM	22.2 µM	2 µM	5.12 µM	0.6 µM	1.64 µM	19.4 µM	0.673 µM	2.12 µM	1.47 µM	5.78 µM	1.54 µM	–
[N-]=[N+]=C(C(=O)CN1CCCC1=O)S(=O)(=O)c1ccccc1	> 100 µM	> 100 µM	> 100 µM	–	> 100 µM	> 100 µM	> 100 µM	> 100 µM	> 100 µM	–	> 100 µM	–	–	–	–	–	–	–	–	–
COc1cc(C2c3cc4c(cc3[C@@H](NC3CCN(Cc5ccccc5)CC3)C3COC(=O)[C@H]23)OCO4)cc(OC)c1O (some centres not stated)	0.2 µM and 0.0548 µM	0.594 µM and 0.183 µM	0.768 µM and 0.927 µM	0.445 µM and 0.503 µM	0.232 µM and 0.12 µM	0.587 µM	2.56 µM and 0.608 µM	0.536 µM and 0.432 µM	1.13 µM and 0.427 µM	–	–	–	0.115 µM and 0.026 µM	–	–	–	–	–	0.679 µM and 0.197 µM	0.185 µM and 0.399 µM
O=C(NC1CCC[C@H]1OC(=O)c1ccccc1)c1ccccc1 (some centres not stated)	> 100 µM	> 100 µM	> 100 µM	> 100 µM	> 100 µM	> 100 µM	> 100 µM	–	–	–	–	–	–	–	–	–	–	–	–	–
O=C(Nc1ccc(Br)cc1)C(=O)C(C(=O)c1ccc(Cl)c(Cl)c1)C1OC(=O)c2ccccc21 (configuration not stated)	> 100 µM	22.8 µM	17.9 µM	> 100 µM	> 100 µM	32.3 µM	51.6 µM	53.7 µM	29.2 µM	–	–	–	–	–	–	–	–	–	–	–
CCCCCCCCCCCCCCNCC(OC)OC	23 µM	31.6 µM	28.9 µM	33.1 µM	36.4 µM	44.3 µM	32.9 µM	25.7 µM	33.4 µM	–	–	–	–	–	–	–	–	–	–	–
CC(=O)OC1CC2(C)C(=CC1C1SCCS1)CCC1C2CCC2(C)C(OC(C)=O)CCC12 (configuration not stated)	> 100 µM	> 100 µM	67.3 µM	> 100 µM	> 100 µM	> 100 µM	> 100 µM	> 100 µM	–	–	> 100 µM	–	–	–	–	–	–	–	–	–
CC1C(c2ccccc2)N(C)C(c2ccccc2)C(C)C1(O)c1ccccc1 (configuration not stated)	> 100 µM	> 100 µM	> 100 µM	> 100 µM	> 100 µM	> 100 µM	> 100 µM	> 100 µM	> 100 µM	–	–	–	–	–	–	–	–	–	–	–
C/C(=N\N=C(N)N)C(CN1CCOCC1)C(c1ccccc1)c1c(O)c2ccccc2oc1=O (configuration not stated)	> 100 µM	> 100 µM	> 100 µM	> 100 µM	> 100 µM	> 100 µM	> 100 µM	> 100 µM	> 100 µM	–	–	–	–	–	–	–	–	–	–	–
O=C1c2ccccc2C(=O)N1CC#CCO	> 100 µM	> 100 µM	> 100 µM	> 100 µM	> 100 µM	> 100 µM	> 100 µM	> 100 µM	–	–	–	–	–	–	–	–	–	–	–	–
CC1(C)CC(=O)C(CC2C(=O)CCCC2=O)C(=O)C1	> 100 µM	> 100 µM	> 100 µM	> 100 µM	> 100 µM	> 100 µM	> 100 µM	> 100 µM	> 100 µM	–	–	–	–	–	–	–	–	–	–	–
O=C(CC12C3C4C1C1C2C3C41CC(=O)NO)NO (configuration not stated)	86.2 µM	> 100 µM	–	–	80.1 µM	> 100 µM	> 100 µM	> 100 µM	> 100 µM	–	–	–	–	–	–	–	–	–	–	–
Cc1nnc(N/N=C/c2ccc([N+](=O)[O-])o2)[nH]c1=O	> 100 µM	> 100 µM	–	> 93.5 µM	–	> 100 µM	> 25 µM	> 100 µM	> 100 µM	0.908 µM	> 100 µM	2.5 µM	0.289 µM	3.77 µM	0.441 µM	0.785 µM	1.86 µM	1.14 µM	1.03 µM	–
C=CCC1(CN(C)C)CC/C(=C\c2ccc3c(c2)OCO3)C1=O (configuration not stated)	15.8 µM	> 100 µM	> 100 µM	–	81.4 µM	> 100 µM	> 100 µM	> 100 µM	> 100 µM	–	–	–	–	–	–	–	–	–	–	–
CC1(c2ccc(F)cc2)C2C(=O)NC(=O)C1C(=O)NC2=O (configuration not stated)	> 100 µM	–	> 100 µM	> 100 µM	> 100 µM	> 100 µM	> 100 µM	> 100 µM	> 100 µM	–	–	–	–	–	–	–	–	–	–	–
C=CC1=C(C)C(/C=c2\[nH]/c(=C/c3[nH]c(CC4NC(=O)C(C)/C4=C\C)c(C)c3CCC(=O)O)c(CC(=O)O)c2C)=NC1=O (configuration not stated)	> 100 µM	> 100 µM	> 100 µM	> 100 µM	> 100 µM	> 100 µM	> 100 µM	> 100 µM	> 100 µM	–	–	–	–	–	–	–	–	–	–	–
COC(=O)CC[C@@H](C)[C@H]1CC[C@H]2[C@@H]3CC[C@@H]4C[C@H](O)CC[C@]4(C)[C@H]3CC[C@]12C	35.5 µM	43.2 µM	33 µM	49.9 µM	46.4 µM	38.2 µM	37.4 µM	33.7 µM	–	–	33 µM	–	–	–	–	–	–	–	–	–
CC1=CC(C)=N/C(=N/S(=O)(=O)c2cc(C)c(Cl)cc2SCc2ccccc2)NN1	> 100 µM	> 100 µM	–	> 100 µM	> 100 µM	> 100 µM	> 100 µM	> 100 µM	> 100 µM	> 100 µM	> 100 µM	> 100 µM	82.3 µM	> 100 µM	> 100 µM	> 100 µM	> 100 µM	> 100 µM	> 100 µM	–
CC1=C(CCC(C)CO)O[C@H]2C[C@H]3[C@@H]4CC[C@H]5C[C@@H](O)CC[C@]5(C)[C@H]4CC(=O)[C@]3(C)[C@@H]12 (some centres not stated)	13.6 µM	37.8 µM	73.8 µM	43.4 µM	23.8 µM	44.3 µM	46.7 µM	57.6 µM	–	–	54.8 µM	–	–	–	–	–	–	–	–	–

— PubChem BioAssay (NCI)
